# From patent US20110044991A1, “METHODS AND COMPOSITIONS FOR TREATING LYMPHOMA AND MYELOMA” (IRM LLC, priority 2006, published 2011)
# Columns and labels:
# Eμ-Myc lymphoma cells = test: Shh-induced proliferation of lymphoma cells without stromal layer, Alamar Blue assay; type: cell-based, mouse; details: Shh 10 μM over 48 h; 5E1 10 μg/ml, cyclopamine 5 μM
# Description: Luminescence was measured after 0 h, 24 h and 48 h after seeding of 2×10E4 luciferased lymphoma cells on the stroma cells; and F: RT-PCR analysis of transcripts from Hh pathway members and targets in spleen lymphocytes and different lymphoma cell lines.
# Cell culture experiments: Lymphoma cells were infected with a retrovirus containing a pMSCV IRES puro-luc sequence and selected for 7 days with puromycin on puromycin-resistant Cdkn2a−/− stroma. […] Both were dissolved as x 1,000 stocks in DMSO. SCF was obtained from RDI, and all other cytokines were obtained from R&D systems. 5E1 anti-ShhN monoclonal antibody was obtained from the developmental hybridoma bank and was used at a concentration of 10 μg/ml. For cytokine stimulation and Shh inhibition in supernatant lymphoma cells were seeded into 96-well plates at a density of 20,000 cells per well and mitochondrial activity of viable cells was measured with an Alamar Blue Assay as described.
# lymphoma cells = test: Annexin V staining, flow cytometry; type: cell-based, mouse; details: 5 μM
# lymphoma cells (Ly9) = system: lymphoma cells (Ly9)
# Description: D: injection of 1 Mio luciferased lymphoma cells in C57B16 mice.
# Immunohistochemistry: Single colour DAB-immunoperoxidase staining was performed as described. Antibodies were obtained from Santa Cruz Biotechnologies (for Shh antibody, N-19), NeoMarkers (for Ki67 antibody) and Promega (for PARP antibody).
# Mouse experiments: Black6 mice between 6 and 8 weeks of age were injected with 1 Mio luciferased lymphoma cells. […] Bioluminescence was measured with injection of […].
# We next wished to determine the importance of Hh signalling in established lymphomas.
# [1] = 50 mg/kg twice a day for 3 days, vs control group
smiles,measurement,setting,value
CC1=C2C[C@H]3[C@@H](CC=C4C[C@@H](O)CC[C@@]43C)[C@@H]2CC[C@]12O[C@@H]1C[C@H](C)CN[C@H]1[C@H]2C [cyclopamine],inhibition of Shh-induced proliferation,Eμ-Myc lymphoma cells,inhibited
same,apoptotic cells (annexin V),lymphoma cells; after 48 hours,~100%
same,apoptotic cells (annexin V),lymphoma cells; within 12 hours,more than 50%
same,infiltration of the spleen,lymphoma cells (Ly9); [1],markedly decreased
same,lymphoma mass in lymph nodes and other organs,lymphoma cells (Ly9); [1],reduced lymphoma mass
same,PARP staining of spleen,lymphoma cells (Ly9); after 3 days of treatment,apoptosis induction
same,histopathology of spleens (H&E),lymphoma cells (Ly9); after 3 days of treatment,reduction of lymphoma cells in the spleen
same,Ki67 staining of spleen,"lymphoma cells (Ly9); after 3 days of treatment, compared to vehicle group",strong decrease of high proliferative cells
same,decrease of spleen weight,"lymphoma cells (Ly9); three-day treatment, compared to vehicle control group",~50%
